Reference: paper PMC8304761, “Development of an Androgen Receptor Inhibitor Targeting the N-Terminal Domain of Androgen Receptor for Treatment of Castration Resistant Prostate Cancer” (Cancers, 2021)
Like-named read-outs stand apart in the source and are kept apart here.

Tests used:
[1] = target: T1, ARV7 (Homo sapiens, UniProt P10275)
T1 sequence (P10275 1-644 isoform P10275-3): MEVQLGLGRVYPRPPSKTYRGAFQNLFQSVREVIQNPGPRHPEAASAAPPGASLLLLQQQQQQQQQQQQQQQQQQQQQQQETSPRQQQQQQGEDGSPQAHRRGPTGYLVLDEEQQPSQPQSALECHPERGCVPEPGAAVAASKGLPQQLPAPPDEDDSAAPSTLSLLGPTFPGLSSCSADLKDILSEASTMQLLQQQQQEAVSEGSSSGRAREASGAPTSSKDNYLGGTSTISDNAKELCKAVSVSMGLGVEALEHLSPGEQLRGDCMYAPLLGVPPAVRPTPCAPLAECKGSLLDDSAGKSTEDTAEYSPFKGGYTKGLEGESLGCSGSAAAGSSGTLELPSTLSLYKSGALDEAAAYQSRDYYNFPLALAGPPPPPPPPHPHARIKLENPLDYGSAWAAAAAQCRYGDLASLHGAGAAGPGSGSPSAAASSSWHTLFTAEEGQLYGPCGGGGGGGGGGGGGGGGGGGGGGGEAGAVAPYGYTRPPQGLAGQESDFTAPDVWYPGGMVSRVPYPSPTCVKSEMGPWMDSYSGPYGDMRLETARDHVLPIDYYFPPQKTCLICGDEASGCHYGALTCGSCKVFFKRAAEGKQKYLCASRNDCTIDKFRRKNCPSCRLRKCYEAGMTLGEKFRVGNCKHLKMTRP
Text: The newly synthesized compounds were screened initially for their ability to inhibit ARV7 transcriptional activity using a cell based ARV7 transcriptional assay.

[2] = Microsomal stability; assay type: in vitro ADME, human
Text: However, further medicinal chemistry optimization is needed to make this scaffold stable enough to proceed to potential preclinical studies. […] Study of VPC-220057 scaffold could lead to a VPC-220010- and VPC-220057-derivative that combines their best potency and stability. The corresponding efforts are under way.

[3] = system: prostate specific antigen (PSA); test: Secreted PSA levels in LNCaP cells; assay type: cell-based; settings: Homo sapiens, LNCaP; Table 1; read-out: PSA IC50
Text: Next, we tested the activity of VPC-220010 against full length AR using an AR-eGFP transcription assay in LNCaP cells. […] To further validate VPC-220010 as an AR inhibitor, we evaluated its ability to reduce the production of endogenous prostate specific antigen (PSA) in PCa cell lines. PSA is an AR-regulated serine protease and is widely used as a biomarker for PCa.

[4] = target: T2, full-length AR (Homo sapiens, UniProt P10275, T878A); test: AR fluorescent (eGFP) reporter assay in LN-ARR2PB-eGFP LNCaP cells; assay type: cell-based
T2 construct: against full length AR using an AR-eGFP transcription assay in LNCaP cells; endogenous in cells; host or cells: LNCaP (LN-ARR2PB-eGFP reporter line for A1; parental LNCaP for RIME)
T2 sequence (P10275 1-920 T878A): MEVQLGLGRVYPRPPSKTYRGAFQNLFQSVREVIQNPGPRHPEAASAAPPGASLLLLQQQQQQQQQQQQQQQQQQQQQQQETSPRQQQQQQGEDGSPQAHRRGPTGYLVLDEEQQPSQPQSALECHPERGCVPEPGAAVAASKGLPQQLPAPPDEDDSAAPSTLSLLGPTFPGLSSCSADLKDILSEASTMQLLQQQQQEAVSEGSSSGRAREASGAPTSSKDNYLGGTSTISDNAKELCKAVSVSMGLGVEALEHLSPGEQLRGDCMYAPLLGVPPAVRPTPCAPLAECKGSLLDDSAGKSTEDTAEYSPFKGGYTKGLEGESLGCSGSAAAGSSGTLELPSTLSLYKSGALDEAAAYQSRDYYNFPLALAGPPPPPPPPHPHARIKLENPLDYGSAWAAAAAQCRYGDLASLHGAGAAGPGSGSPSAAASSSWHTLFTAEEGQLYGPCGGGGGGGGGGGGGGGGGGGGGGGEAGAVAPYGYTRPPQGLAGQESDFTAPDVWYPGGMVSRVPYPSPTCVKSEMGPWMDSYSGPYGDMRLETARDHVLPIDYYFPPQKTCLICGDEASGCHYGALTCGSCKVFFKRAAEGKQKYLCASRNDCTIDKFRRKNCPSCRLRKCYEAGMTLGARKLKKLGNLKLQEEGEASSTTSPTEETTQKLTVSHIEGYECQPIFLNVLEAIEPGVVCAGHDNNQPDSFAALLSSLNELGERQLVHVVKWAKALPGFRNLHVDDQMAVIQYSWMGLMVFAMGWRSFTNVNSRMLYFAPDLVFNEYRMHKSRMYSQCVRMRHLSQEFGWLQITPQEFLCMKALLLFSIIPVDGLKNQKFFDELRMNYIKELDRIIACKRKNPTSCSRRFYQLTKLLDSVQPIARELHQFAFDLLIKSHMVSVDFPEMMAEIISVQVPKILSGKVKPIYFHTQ
Procedure: AR fluorescent reporter assay: Stably transfected eGFP-expressing LNCaP human prostate cancer cells (LN-ARR2PB-eGFP) containing an androgen-responsive probasin-derived promoter (ARR2PB) were assayed, as previously described.
Next, we tested the activity of VPC-220010 against full length AR using an AR-eGFP transcription assay in LNCaP cells. […] PSA is an AR-regulated serine protease and is widely used as a biomarker for PCa.

[5] = system: 22Rv1 cells; test: Proliferation assay (PrestoBlue), 22Rv1; assay type: cell-based; settings: Homo sapiens, 72 h, Figure 2D, read-out: IC50, viability of 22Rv1 cells
Procedure: (§1) Proliferation assay: LNCaP, 22Rv1 and PC3 cells were plated at 3000 cells per well in RPMI1640 containing 5% CSS in a 96-well plate, treated with 0.1 nm R1881 (a synthetic androgen) and test compounds (0–25 μM) for 72 h. Cell proliferation was determined using the PrestoBlue^TM cell proliferation assay following incubation with the compound […] over 72 h. In brief, 30 μL of the PrestoBlue^TM reagent was added to cells in each well of the 96-well plate containing 200 μL of media and incubated for 60 min at 37 °C in 5% CO2. The production of […]. Fluorescence measurement was read on a TECAN F200.
(§2) We then evaluated the effect of VPC-220010 on the proliferation of androgen-dependent LNCaP and ARV7-dependent 22Rv1 cells.

[6] = system: LNCaP cells; test: Proliferation assay (PrestoBlue), LNCaP; assay type: cell-based; settings: Homo sapiens, 72 h, R1881, Figure 2C, read-out: IC50, viability of LNCaP cells
Procedure: as §1, §2

[7] = target: T3, progesterone receptor (PR) (Homo sapiens, UniProt P06401); test: Luciferase reporter transcription assay in PC3 cells, PR; settings: progesterone stimulated; 20 uM; Figure 4
T3 sequence (P06401 1-933): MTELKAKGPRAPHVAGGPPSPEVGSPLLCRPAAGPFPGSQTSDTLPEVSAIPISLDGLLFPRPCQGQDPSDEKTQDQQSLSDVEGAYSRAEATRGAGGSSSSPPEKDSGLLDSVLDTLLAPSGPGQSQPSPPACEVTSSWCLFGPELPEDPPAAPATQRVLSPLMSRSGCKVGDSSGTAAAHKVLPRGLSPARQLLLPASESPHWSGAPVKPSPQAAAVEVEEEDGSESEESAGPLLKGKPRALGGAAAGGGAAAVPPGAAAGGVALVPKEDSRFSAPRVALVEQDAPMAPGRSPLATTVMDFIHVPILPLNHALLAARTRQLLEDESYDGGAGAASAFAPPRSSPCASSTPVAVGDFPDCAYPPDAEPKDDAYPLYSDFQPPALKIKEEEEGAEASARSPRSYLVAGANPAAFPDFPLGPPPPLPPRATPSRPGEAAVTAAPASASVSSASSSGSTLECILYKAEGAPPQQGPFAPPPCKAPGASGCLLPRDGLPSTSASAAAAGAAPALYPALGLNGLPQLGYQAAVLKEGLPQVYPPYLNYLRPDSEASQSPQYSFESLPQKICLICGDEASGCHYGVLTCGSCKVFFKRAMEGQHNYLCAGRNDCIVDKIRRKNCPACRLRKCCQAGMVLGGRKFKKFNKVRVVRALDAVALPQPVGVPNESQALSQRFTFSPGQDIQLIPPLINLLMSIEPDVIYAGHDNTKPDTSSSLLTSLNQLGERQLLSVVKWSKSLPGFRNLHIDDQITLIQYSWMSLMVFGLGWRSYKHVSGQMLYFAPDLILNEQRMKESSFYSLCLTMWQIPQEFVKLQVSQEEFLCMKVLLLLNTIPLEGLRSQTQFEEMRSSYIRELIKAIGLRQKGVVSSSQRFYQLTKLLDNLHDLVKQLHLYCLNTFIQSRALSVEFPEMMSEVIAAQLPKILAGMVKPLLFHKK

[8] = target: T4, glucocorticoid receptor (GR) (Homo sapiens, UniProt P04150); test: Luciferase reporter transcription assay in PC3 cells, GR; settings: dexamethasone stimulated; 20 uM; Figure 4
T4 sequence (P04150 1-777): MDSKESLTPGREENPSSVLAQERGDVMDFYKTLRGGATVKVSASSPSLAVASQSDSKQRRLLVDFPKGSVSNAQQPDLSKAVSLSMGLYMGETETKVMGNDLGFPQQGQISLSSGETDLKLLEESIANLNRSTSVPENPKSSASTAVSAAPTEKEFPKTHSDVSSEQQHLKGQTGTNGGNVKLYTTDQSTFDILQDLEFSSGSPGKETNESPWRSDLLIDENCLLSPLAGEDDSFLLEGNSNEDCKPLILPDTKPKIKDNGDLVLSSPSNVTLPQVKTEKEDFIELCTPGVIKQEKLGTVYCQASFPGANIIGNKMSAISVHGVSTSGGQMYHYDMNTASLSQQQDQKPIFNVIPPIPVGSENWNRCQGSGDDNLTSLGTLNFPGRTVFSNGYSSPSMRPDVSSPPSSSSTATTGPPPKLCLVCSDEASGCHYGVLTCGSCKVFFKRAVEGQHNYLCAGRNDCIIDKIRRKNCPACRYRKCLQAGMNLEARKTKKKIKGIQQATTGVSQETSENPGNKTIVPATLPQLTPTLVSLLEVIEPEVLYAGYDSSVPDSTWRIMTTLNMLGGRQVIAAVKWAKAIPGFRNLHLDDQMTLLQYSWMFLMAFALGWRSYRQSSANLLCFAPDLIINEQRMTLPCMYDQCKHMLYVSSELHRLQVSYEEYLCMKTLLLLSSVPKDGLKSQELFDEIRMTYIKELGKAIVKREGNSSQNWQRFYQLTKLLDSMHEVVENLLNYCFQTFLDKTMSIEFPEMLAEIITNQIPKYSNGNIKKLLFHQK

Row | Structure (SMILES) | IC50 [1] | activity against ARV7 (in words) [1] | half-life ([2]; human, microsomes) | IC50 [3] | IC50 ([4]; Table 1, read-out: eGFP IC50) | other results
1 | O[C@@H](CCl)COc1cccc2c(OC[C@@H](O)CCl)cccc12 [RR-220010] | 5 µM | no difference in potency | 11 min | 700 nM | 700 nM | –
2 | O[C@H](CCl)COc1cccc2c(OC[C@H](O)CCl)cccc12 [SS-220010] | 6 µM | no difference in potency | 12 min | 600 nM | 700 nM | –
3 | OC(CCl)CNc1cccc2c(NCC(O)CCl)cccc12 (stereo not drawn) [VPC-2055] | 8.8 µM | active against this truncated variant | – | – | – | IC50 [5]: > 50 µM; IC50 [6]: 11.8 µM; IC50 ([4]; LNCaP cells, read-out: IC50, full length AR, AR-eGFP transcription assay): 1000 nM
4 | OC(CCl)COc1c(Br)ccc2c(OCC(O)CCl)c(Br)ccc12 (stereo not drawn) [VPC-220027] | 4 µM | – | – | 4000 nM | 3000 nM | –
5 | OC(CCl)COc1ccc(Br)c2c(OCC(O)CCl)ccc(Br)c12 (stereo not drawn) [VPC-220028] | 3 µM | – | – | 400 nM | 400 nM | –
6 | O=[N+]([O-])c1ccc2c(OCC(O)CCl)cccc2c1OCC(O)CCl (stereo not drawn) [VPC-220054] | 3 µM | – | – | 5000 nM | 5000 nM | –
7 | O=[N+]([O-])c1ccc(OCC(O)CCl)c2c([N+](=O)[O-])ccc(OCC(O)CCl)c12 (stereo not drawn) [VPC-220057] | 8 µM | – | – | 8000 nM | 10000 nM | half-life ([2]; microsomal stability, human microsomes, read-out: T1/2): 462 min; fold less potent than VPC-220010 ([4]; Table 1): 10 fold
8 | OC(CCl)COc1ccc(Br)c2c(OCC(O)CCl)cccc12 (stereo not drawn) [VPC-220062] | 3 µM | – | 36 min | 500 nM | 500 nM | –
9 | OC(CCl)COc1ccc2cc(OCC(O)CCl)ccc2c1 (stereo not drawn) [VPC-220075] | 12 µM | – | 18 min | 500 nM | 500 nM | –
10 | CC#C[C@]1(O)CC[C@H]2[C@@H]3CCC4=CC(=O)CCC4=C3[C@@H](c3ccc(N(C)C)cc3)C[C@@]21C [mifepristone] | – | – | – | – | – | PR transcriptional reporter activity [7]: inhibited; GR transcriptional reporter activity [8]: inhibited
